The text below walks through data of US11566007B2, “Ras inhibitors” (Revolution Medicines, Inc., priority 2019, dated 2023).

One assay concerns NCI-H358 (K-Ras G12C). The experiment in a line: CellTiter-Glo cell viability assay, NCI-H358. It counts as cell-based, human. The conditions noted are these: Homo sapiens, NCI-H358, 120 h, NCI-H358, 5-day treatment; class symbols; read-out: Additional H358 Cell Viability assay data (K-Ras G12C, IC50). The method in brief:
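Four-parameter logistic fits were applied to luminescence data normalized against DMSO-treated wells. Readings were taken on day 5 following direct compound addition, after roughly 30 minutes at room temperature.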
On the technique in general: Cellular ATP, detected with luciferase, serves as a proxy for viable cell number.

The target of a further assay is K-Ras G12C (Homo sapiens (Human), UniProt P01116+P62937, G12C). The experiment in a line: Ras-Raf (BRAF RBD) disruption / FRET / MOA assay, KRAS G12C. It counts as biochemical. The conditions noted are these: KRAS G12C; Ras-Raf disruption/FRET/MOA assay; read-out: IC50* KRAS G12C FRET data. The method in brief:
(§1)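 Compound-driven ternary complex of nucleotide-loaded Ras with cyclophilin A, disrupting BRAF RBD binding. 10-point 3-fold dilution from 30 μM final, 3 h at 25° C, then anti-His Eu-W1024 (10 nM) and anti-GST allophycocyanin (50 nM) for 1.5 h. IC50 from TR-FRET ratio decrease versus DMSO.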

Another assay concerns the target K-Ras G13C (Homo sapiens (Human), UniProt P01116+P62937, G13C). Kind of assay: Ras-Raf (BRAF RBD) disruption / FRET / MOA assay, KRAS G13C. It counts as biochemical. The following applies: KRAS G13C; Ras-Raf disruption/FRET/MOA assay; read-out: IC50* KRAS G13C FRET data. In short, it runs like this: as §1
In the next assay the target is KRAS G12V (Homo sapiens (Human), UniProt P01116+P62937, G12V). Kind of assay: Ras-Raf (BRAF RBD) disruption / FRET / MOA assay, KRAS G12V. It counts as biochemical. The following applies: read-out: IC50* KRAS G12V FRET data. In short, it runs like this:
as §1

A further assay addresses KRAS WT (Homo sapiens (Human), UniProt P01116+P62937). The experiment in a line: Ras-Raf (BRAF RBD) disruption / FRET / MOA assay, KRAS WT. The following applies: read-out: IC50* KRAS WT FRET data. It counts as biochemical. The method in brief: as §1
Another assay addresses KRAS G13D (Homo sapiens (Human), UniProt P01116+P62937, G13D). The experiment in a line: Ras-Raf (BRAF RBD) disruption / FRET / MOA assay, KRAS G13D. The following applies: read-out: IC50* KRAS G13D FRET data. It counts as biochemical. The method in brief:
as §1

In the next assay the target is KRAS Q61H (Homo sapiens (Human), UniProt P01116+P62937, Q61H). Kind of assay: Ras-Raf (BRAF RBD) disruption / FRET / MOA assay, KRAS Q61H. The conditions noted are these: Ras-Raf disruption/FRET/MOA assay; class symbols; read-out: KRAS Q61H FRET data IC50. It counts as biochemical. The method in brief: (§2)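 Compounds (30 μM top final, 10-point 3-fold dilutions) incubated 3 h at 25° C with nucleotide-loaded Ras, cyclophilin A and BRAF RBD. Detection with 10 nM anti-His Eu-W1024 and 50 nM anti-GST allophycocyanin over another 1.5 h. Lowered TR-FRET ratio relative to DMSO wells gives IC50.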

For the next assay, the target named is NRAS G12C (Homo sapiens (Human), UniProt P01111+P62937, G12C). Kind of assay: Ras-Raf (BRAF RBD) disruption / FRET / MOA assay, NRAS G12C. It counts as biochemical. The following applies: read-out: IC50* NRAS G12C FRET data. In short, it runs like this: as §1
A further assay has as its target NRAS Q61R (Homo sapiens (Human), UniProt P01111+P62937, Q61R). Kind of assay: Ras-Raf (BRAF RBD) disruption / FRET / MOA assay, NRAS Q61R. It counts as biochemical. The conditions noted are these: NRAS Q61R; Ras-Raf disruption/FRET/MOA assay; read-out: IC50* NRAS Q61R FRET data. In short, it runs like this: as §2
For another assay, the target named is NRAS WT (Homo sapiens (Human), UniProt P01111+P62937). The experiment in a line: Ras-Raf (BRAF RBD) disruption / FRET / MOA assay, NRAS WT. It counts as biochemical. The following applies: read-out: IC50* NRAS WT FRET data. The method in brief:
as §2

Sequence of KRAS G12V (P01116-2 other isoform, or with tags, fused parts or gaps G12V): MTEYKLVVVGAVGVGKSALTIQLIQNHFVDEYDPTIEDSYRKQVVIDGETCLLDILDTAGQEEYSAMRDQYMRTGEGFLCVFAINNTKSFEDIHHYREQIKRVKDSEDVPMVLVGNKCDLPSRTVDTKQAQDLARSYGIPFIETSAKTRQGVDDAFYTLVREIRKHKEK
Sequence of KRAS G12V (P62937 whole entry): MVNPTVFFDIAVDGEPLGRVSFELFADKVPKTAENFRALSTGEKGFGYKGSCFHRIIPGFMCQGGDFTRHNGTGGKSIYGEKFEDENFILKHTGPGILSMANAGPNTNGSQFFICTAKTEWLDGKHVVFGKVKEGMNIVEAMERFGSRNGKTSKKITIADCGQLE
Sequence of NRAS WT (P01111 whole entry): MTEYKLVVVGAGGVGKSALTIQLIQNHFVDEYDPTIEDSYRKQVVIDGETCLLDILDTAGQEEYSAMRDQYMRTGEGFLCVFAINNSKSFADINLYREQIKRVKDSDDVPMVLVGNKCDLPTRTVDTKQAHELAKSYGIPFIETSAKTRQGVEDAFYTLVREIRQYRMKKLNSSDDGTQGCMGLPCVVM
Sequence of NRAS WT (P62937 whole entry): as the sequence (P62937 whole entry) above
Sequence of KRAS Q61H (P01116-2 other isoform, or with tags, fused parts or gaps Q61H): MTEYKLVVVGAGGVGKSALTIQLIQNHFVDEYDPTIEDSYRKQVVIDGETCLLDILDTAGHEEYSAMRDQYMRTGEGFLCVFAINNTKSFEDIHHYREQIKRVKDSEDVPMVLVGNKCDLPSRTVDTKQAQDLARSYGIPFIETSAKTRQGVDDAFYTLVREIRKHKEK
Sequence of KRAS Q61H (P62937 whole entry): as the sequence (P62937 whole entry) above
Sequence of KRAS G13D (P01116-2 other isoform, or with tags, fused parts or gaps G13D): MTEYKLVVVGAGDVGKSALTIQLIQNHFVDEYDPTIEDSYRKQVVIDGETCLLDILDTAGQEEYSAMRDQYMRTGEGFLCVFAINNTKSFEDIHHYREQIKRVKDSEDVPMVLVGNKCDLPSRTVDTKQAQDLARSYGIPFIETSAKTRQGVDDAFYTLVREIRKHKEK
Sequence of KRAS G13D (P62937 whole entry): as the sequence (P62937 whole entry) above
Sequence of K-Ras G13C (P01116-2 other isoform, or with tags, fused parts or gaps G13C): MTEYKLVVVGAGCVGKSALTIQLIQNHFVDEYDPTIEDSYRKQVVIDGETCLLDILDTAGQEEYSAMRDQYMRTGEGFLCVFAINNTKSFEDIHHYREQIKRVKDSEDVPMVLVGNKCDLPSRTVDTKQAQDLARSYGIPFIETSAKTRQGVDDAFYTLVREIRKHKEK
Sequence of K-Ras G13C (P62937 whole entry): as the sequence (P62937 whole entry) above
Sequence of NRAS Q61R (P01111 whole entry Q61R): as the sequence (P01111 whole entry) above, with Q61R counted along it
Sequence of NRAS Q61R (P62937 whole entry): as the sequence (P62937 whole entry) above
Sequence of K-Ras G12C (P01116-2 other isoform, or with tags, fused parts or gaps G12C): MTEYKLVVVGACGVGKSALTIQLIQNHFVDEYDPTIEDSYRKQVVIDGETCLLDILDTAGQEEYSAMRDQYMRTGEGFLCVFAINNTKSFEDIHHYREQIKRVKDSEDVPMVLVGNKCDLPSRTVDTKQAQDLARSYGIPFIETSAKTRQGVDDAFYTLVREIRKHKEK
Sequence of K-Ras G12C (P62937 whole entry): as the sequence (P62937 whole entry) above
Sequence of KRAS WT (P01116-2 other isoform, or with tags, fused parts or gaps): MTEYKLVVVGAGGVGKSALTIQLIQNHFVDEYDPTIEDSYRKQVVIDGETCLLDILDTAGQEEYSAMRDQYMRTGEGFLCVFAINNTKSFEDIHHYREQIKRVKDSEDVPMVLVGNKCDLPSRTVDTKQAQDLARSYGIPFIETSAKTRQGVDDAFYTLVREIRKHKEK
Sequence of KRAS WT (P62937 whole entry): as the sequence (P62937 whole entry) above
Sequence of NRAS G12C (P01111 whole entry G12C): as the sequence (P01111 whole entry) above, with G12C counted along it
Sequence of NRAS G12C (P62937 whole entry): as the sequence (P62937 whole entry) above

As to `CO[C@@H](C)c1ncccc1-c1c2c3cc(ccc3n1CC(F)(F)F)N1CCO[C@@H](C[C@H](NC(=O)[C@@H](COC3CN(C(=O)C#CC(C)(C)N(C)C)C3)C(C)C)C(=O)N3CCC[C@H](N3)C(=O)OCC(C)(C)C2)C1` (atropisomer, axis not shown) [Example A375, (2R)-2-(((1-(4-(dimethylamino)-4-methylpent-2-ynoyl)azetidin-3-yl)oxy)methyl)-N-((2^2S,6^3S,4S)-1^2-(2-((S)-1-methoxyethyl)pyridin-3-yl)-10,10-dimethyl-5,7-dioxo-1^1-(2,2,2-trifluoroethyl)-6^1,6^2,6^3,6^4,6^5,6^6-hexahydro-1^1H-8-oxa-2(4,2)-morpholina-1(5,3)-indola-6(1,3)-pyridazinacycloundecaphane-4-yl)-3-methylbutanamide], the IC50 in the assay with NCI-H358 (K-Ras G12C) was less than 10 nM; on K-Ras G12C it was less than 10 nM; on K-Ras G13C it was 1000 to 10000 nM; at KRAS G12V it was 1000 to 10000 nM; on KRAS WT, 1000 to 10000 nM; at KRAS G13D, more than 10000 nM. Moreover, the IC50 is more than 10000 nM at KRAS Q61H, less than 10 nM at NRAS G12C, more than 10000 nM on NRAS Q61R and 1000 to 10000 nM on NRAS WT.
For the compound `C=CC(=O)N(C)[C@@H]1CCCN(C(=O)N(C)[C@H](C(=O)N[C@H]2Cc3nc(cs3)-c3ccc4c(c3)c(c(-c3cccnc3[C@H](C)OC)n4CC)CC(C)(C)COC(=O)[C@@H]3CCCN(N3)C2=O)C(C)C)C1` (atropisomer, axis not shown) [Example A382], the IC50 in the assay with NCI-H358 (K-Ras G12C) was less than 10 nM; on K-Ras G12C it was 10 to 100 nM; at K-Ras G13C it was 100 to 1000 nM; on KRAS G12V, 100 to 1000 nM; at KRAS WT it was 10 to 100 nM; on KRAS G13D, 100 to 1000 nM. Further, the IC50 on KRAS Q61H, on NRAS G12C, on NRAS Q61R and on NRAS WT was 10 to 100 nM in each case.
Take `C=CC(=O)N(C)C1CCN(C(=O)N(C)[C@H](C(=O)N[C@H]2Cc3nc(cs3)-c3ccc4c(c3)c(c(-c3cccnc3[C@H](C)OC)n4CC)CC(C)(C)COC(=O)[C@@H]3CCCN(N3)C2=O)C(C)C)CC1` (atropisomer, axis not shown) [Example A383]: the IC50 in the assay with NCI-H358 (K-Ras G12C) was less than 10 nM; at K-Ras G12C, 10 to 100 nM; on K-Ras G13C, 10 to 100 nM; on KRAS G12V, 10 to 100 nM; at KRAS WT, 10 to 100 nM; on KRAS G13D it was 100 to 1000 nM. The IC50 at KRAS Q61H, at NRAS G12C, at NRAS Q61R and on NRAS WT was 10 to 100 nM in each case.
In the case of `C=CC(=O)N1C[C@@H](C)N(C(=O)N(C)[C@H](C(=O)N[C@H]2Cc3nc(cs3)-c3ccc4c(c3)c(c(-c3cccnc3[C@H](C)OC)n4CC)CC(C)(C)COC(=O)[C@@H]3CCCN(N3)C2=O)C(C)C)[C@H](C)C1` (atropisomer, axis not shown) [Example A388], the IC50 in the assay on NCI-H358 (K-Ras G12C) is less than 10 nM; on K-Ras G12C, less than 10 nM; at K-Ras G13C, 10 to 100 nM; at KRAS G12V it was 10 to 100 nM; on KRAS WT, less than 10 nM; on KRAS G13D, 10 to 100 nM. The IC50 on KRAS Q61H, on NRAS G12C, at NRAS Q61R and on NRAS WT was less than 10 nM throughout.
For the compound `C=CC(=O)N1C[C@@H]2CN(C(=O)N(C)[C@H](C(=O)N[C@H]3Cc4nc(cs4)-c4ccc5c(c4)c(c(-c4cccnc4[C@H](C)OC)n5CC)CC(C)(C)COC(=O)[C@@H]4CCCN(N4)C3=O)C(C)C)C[C@@H]2C1` (atropisomer, axis not shown) [Example A389], the IC50 is less than 10 nM with NCI-H358 (K-Ras G12C); 10 to 100 nM on K-Ras G12C; 10 to 100 nM on K-Ras G13C; 10 to 100 nM at KRAS G12V; 10 to 100 nM at KRAS WT; 100 to 1000 nM at KRAS G13D. Also, the IC50 at KRAS Q61H, on NRAS G12C, on NRAS Q61R and at NRAS WT was 10 to 100 nM each time.
As to `C=CC(=O)N(C)[C@@H]1CCN(C(=O)N(C)[C@H](C(=O)N[C@H]2Cc3nc(cs3)-c3ccc4c(c3)c(c(-c3cccnc3[C@H](C)OC)n4CC)CC(C)(C)COC(=O)[C@@H]3CCCN(N3)C2=O)C(C)C)C1` (atropisomer, axis not shown) [Example A416], the IC50 with NCI-H358 (K-Ras G12C) was less than 10 nM; on K-Ras G12C, 10 to 100 nM; on K-Ras G13C, 100 to 1000 nM; at KRAS G12V, 100 to 1000 nM; at KRAS WT, 100 to 1000 nM; at KRAS G13D, 100 to 1000 nM. Further, the concentration for half-maximal inhibition (IC50) fell in the range of 10 to 100 nM at KRAS Q61H, 100 to 1000 nM at NRAS G12C, 100 to 1000 nM at NRAS Q61R and 100 to 1000 nM on NRAS WT.
For `C=CC(=O)N1CC[C@H](C(=O)N(C)[C@H](C(=O)N[C@H]2Cc3coc(n3)-c3ccc4c(c3)c(c(-c3cccnc3[C@H](C)OC)n4CC)CC(C)(C)COC(=O)[C@@H]3CCCN(N3)C2=O)C(C)C)C1` (atropisomer, axis not shown) [Example A468], the IC50 in the assay with NCI-H358 (K-Ras G12C) is 10 to 100 nM; at K-Ras G12C, 100 to 1000 nM; on K-Ras G13C, 1000 to 10000 nM; at KRAS G12V, 1000 to 10000 nM; on KRAS WT, 1000 to 10000 nM; on KRAS G13D, 1000 to 10000 nM. Also, the IC50 at KRAS Q61H is 100 to 1000 nM; on NRAS G12C, 100 to 1000 nM; on NRAS Q61R, more than 10000 nM; at NRAS WT it was 1000 to 10000 nM.
Regarding `C=CC(=O)N1CCN(C(=O)N(C)[C@H](C(=O)N[C@H]2Cc3nc(cs3)-c3ccc4c(c3)c(c(-c3cccnc3[C@H](C)OC)n4CC)CC(C)(C)COC(=O)[C@@H]3CCCN(N3)C2=O)C(C)C)CC1` (atropisomer, axis not shown) [Example A491], the IC50 was less than 10 nM in the assay on NCI-H358 (K-Ras G12C); 10 to 100 nM at K-Ras G12C; 10 to 100 nM on K-Ras G13C; 10 to 100 nM on KRAS G12V; 10 to 100 nM on KRAS WT; 100 to 1000 nM at KRAS G13D. Further, the IC50 at KRAS Q61H, on NRAS G12C, on NRAS Q61R and at NRAS WT was 10 to 100 nM throughout.
Consider `C=CC(=O)N1CC[C@H](C(=O)N(C)[C@H](C(=O)N[C@H]2Cc3nc(cs3)-c3ccc4c(c3)c(c(-c3cccnc3[C@H](C)OC)n4CC(F)(F)F)CC(C)(C)COC(=O)[C@@H]3CCCN(N3)C2=O)C(C)C)C1` (atropisomer, axis not shown) [Example A502], for which the IC50 with NCI-H358 (K-Ras G12C) is less than 10 nM; on K-Ras G12C, 100 to 1000 nM; on K-Ras G13C, 100 to 1000 nM; on KRAS G12V, 1000 to 10000 nM; at KRAS WT, 1000 to 10000 nM; at KRAS G13D it was 1000 to 10000 nM. For the same compound, the IC50 at KRAS Q61H, on NRAS G12C, on NRAS Q61R and on NRAS WT was 100 to 1000 nM each time.
`C=CC(=O)N1CC[C@H](C(=O)N(C)[C@H](C(=O)N[C@H]2Cc3cc(CF)cc(c3)-c3ccc4c(c3)c(c(-c3cccnc3[C@H](C)OC)n4CC)CC(C)(C)COC(=O)[C@@H]3CCCN(N3)C2=O)C(C)C)C1` (atropisomer, axis not shown) [Example A503]: the IC50 in the assay on NCI-H358 (K-Ras G12C) was less than 10 nM; at K-Ras G12C it was 10 to 100 nM; at K-Ras G13C, 100 to 1000 nM; at KRAS G12V, 1000 to 10000 nM; at KRAS WT, 1000 to 10000 nM; at KRAS G13D, 1000 to 10000 nM. Besides, the IC50 at KRAS Q61H lay within 100 to 1000 nM; on NRAS G12C, 10 to 100 nM; on NRAS Q61R it was 1000 to 10000 nM; on NRAS WT, 1000 to 10000 nM.

A word on the IC50: it is the midpoint of a concentration-inhibition curve.
